Source: patent US20220362386A1, “LIQUID COMPOSITIONS COMPRISING A LEVODOPA AMINO ACID CONJUGATE AND USES THEREOF” (NeuroDerm, Ltd., priority 2019, published 2022)
Counter-ions that a name gives are not always drawn. Like-named read-outs stand apart in the source and are kept apart here. Non-standard residues stand in square brackets, D forms with d. Residues, ends and D or L forms follow the SMILES beside them. Dopa = N[C@@H](Cc1ccc(O)c(O)c1)C(=O)O

Tests used:
[1] = In-vitro metabolism of LDAA compounds using liver microsomes; format: in vitro ADME, human; settings: for half-life at 0.1 μM / microsomal CLint at 0.1 μM: both sexes, human, pooled human liver microsomes; for half-life at 0.1 μM: pH 7.4, 1.0E−07M, 0.1 mg/mL microsomal protein; for microsomal CLint at 0.1 μM: pH 7.4, calculated from the half-life; for microsomal CLint at 0.1 μM / % Compound Remaining 1st / % Compound Remaining 2nd / % Compound Remaining Mean: 1.0E−07M
Experimental: The stability of test compounds in pooled human liver microsomes was determined on 96-well plates, wherein the test compounds were quantified at five time points by HPLC-MS/MS analysis. The assay matrix included mixed gender and a pool of 50 human liver microsomes, wherein the final microsomal protein concentration was 0.1 mg/mL. The test concentration was 0.1 μM with 0.01% DMSO, 0.25% acetonitrile and 0.25% methanol.
Each test compound was pre-incubated for five minutes with pooled liver microsomes in phosphate buffer (pH 7.4) in a 37° C. shaking water-bath. The reaction was initiated by adding a nicotinamide adenine dinucleotide phosphate (NADPH)-generating system and incubating for 0, 15, 30, 45, and 60 min. The reaction was stopped by transferring the incubation mixture to acetonitrile/methanol. Samples were then mixed and centrifuged, wherein the supernatants were used for HPLC-MS/MS analysis.
In each assay the four reference compounds propranolol, imipramine, verapamil and terfenadine were tested, wherein the propranolol and the imipramine are known to be relatively stable, while the verapamil and the terfenadine are known to be readily metabolized in human liver microsomes.
All samples were analyzed by HPLC-MS/MS using selected reaction monitoring. The HPLC system consisted of a binary LC pump with autosampler, a C-18 column, and a gradient. The conditions were adjusted when necessary.
Peak areas corresponding to the test compound were recorded. The amount of each compound remaining was calculated by comparing the peak area at each time point to time zero. The half-life is calculated from the slope of the initial linear range of the logarithmic curve of compound remaining (%) vs. time, assuming first order kinetics. In addition, the intrinsic clearance (Clint) was calculated from the half-life using the following equation:
Clint(μL/min/mg protein)=0.693/(t1/2×protein concentration)
The results of the in-vitro human liver microsome metabolism tests of various LDAA compounds (10^−7M), in their TFA salt forms, are provided in FIG. 1 and in Table 17, which presents the % of the compound remaining at times 0, 15, 30, 45 and 60 minutes, two half-life measurements and the Clint, calculated as detailed above.

P-gp = test: In-vitro absorption, Caco-2 A-B permeability; format: in vitro ADME, human; settings: human, Caco-2, pH 7.4, with verapamil 100 μM on both the A and B sides, Caco-2 A-B, in the presence of verapamil
Experimental: (§1) Conditions may be adjusted when necessary.
(§2) D denotes donor and R is receiver. […] V is the volume of the donor or receiver.
(§3) The test was performed with and without verapamil, which is a permeation inhibitor, and the results are presented in Tables 22 (without verapamil) and 34 (with verapamil).

[2] = In-vitro absorption, Caco-2 A-B permeability; format: in vitro ADME, human; settings: human, Caco-2, pH 7.4, Caco-2 A-B, without verapamil; for Papp A→B at 60 min, 10 μM: 1.0E−05M
Experimental: as §1, §2, §3

[3] = Comparative formulation tests, physical stability (Tables 32a-c, 33a-c); format: physicochemical; settings: LDAA TFA salt/CD formulation; for Physical stability (visual), Day 1: Day 1, room temperature; for Physical stability (visual), Day 2: Day 2, room temperature; for Physical stability (visual), Day 5: Day 5, room temperature after two days at 2-8° C.; for Physical stability (visual), Day 6: Day 6, room temperature after two days at 2-8° C.; for Physical stability (visual), Day 40: Day 40, returned to 2-8° C.
Experimental: It is noted that the formulations were similarly to those above; however, CD was added, and further, the amounts of the antioxidants, i.e., ascorbic acid and NAC, were added at three different concentrations, as detailed in Tables 32a-c below. Further, an additional amount of arginine was added to the solution in order to adjust the pH to a physiologically acceptable pH.
The formulations prepared as detailed in Tables 32a, 32b and 32c were (a) held at room temperature for two days; (b) transferred to a refrigerator (2-8° C.) for two days; and (c) transferred from the refrigerator to room temperature for an additional two days, during which they were assessed again for precipitants. The formulations were then returned to the refrigerator (2-8° C.) and assessed for precipitants on day 40. The physical stability of each formulation was assessed on the first two days and again on the last two days. The physical stability of the formulations was assessed visually. A clear solution was considered to be stable, while a solution comprising precipitants was considered to be physically unstable. The stability results of the formulations of Tables 32a, 32b and 32c are detailed in Tables 33a, 33b and 33c, respectively.

[4] = read-out: Half-Life (minute) 1st
[5] = read-out: Half-Life (minute) 2nd
[6] = read-out: Half-Life (minute) Mean
[7] = read-out: Percent Recovery Mean
[8] = NB 144-15, ~0.1% Asc + ~0.1% NAC
[9] = NB 144-18, ~0.4% Asc + ~0.4% NAC
[10] = NB 144-20, ~0.8% Asc + ~0.8% NAC

| SMILES | half-life at 0.1 μM [1, 4] [min] | half-life at 0.1 μM [1, 5] [min] | half-life at 0.1 μM [1, 6] [min] | microsomal CLint at 0.1 μM [1] [µL/min/mg] | % Compound Remaining 1st ([1]; incubation time 0 minutes) [%] | % Compound Remaining 2nd ([1]; incubation time 0 minutes) [%] | % Compound Remaining Mean ([1]; incubation time 0 minutes) [%] | % Compound Remaining 1st ([1]; incubation time 15 minutes) [%] | % Compound Remaining 2nd ([1]; incubation time 15 minutes) [%] | % Compound Remaining Mean ([1]; incubation time 15 minutes) [%] | % Compound Remaining 1st ([1]; incubation time 30 minutes) [%] | % Compound Remaining 2nd ([1]; incubation time 30 minutes) [%] | % Compound Remaining Mean ([1]; incubation time 30 minutes) [%] | % Compound Remaining 1st ([1]; incubation time 45 minutes) [%] | % Compound Remaining 2nd ([1]; incubation time 45 minutes) [%] | % Compound Remaining Mean ([1]; incubation time 45 minutes) [%] | % Compound Remaining 1st ([1]; incubation time 60 minutes) [%] | % Compound Remaining 2nd ([1]; incubation time 60 minutes) [%] | % Compound Remaining Mean ([1]; incubation time 60 minutes) [%] | recovery at 60 min, 10 μM (P-gp; read-out: Percent Recovery 1st) [%] | other results |
| --- | --- | --- | --- | --- | --- | --- | --- | --- | --- | --- | --- | --- | --- | --- | --- | --- | --- | --- | --- | --- | --- |
| N[C@@H](CSC[C@H](NC(=O)[C@@H](N)Cc1ccc(O)c(O)c1)C(=O)O)C(=O)O (single isomer, unassigned; peak 2) [LD-LA2 TFA salt, Levodopa Lanthionine Peak 2 TFA Salt] | 75.7 | 110 | > 60 | < 116 | 100 | 100 | 100 | 122.9 | 103.5 | 113 | 105.6 | 94.5 | 100 | 97.5 | 102 | 100 | 56.5 | 62.9 | 60 | 89 | recovery at 60 min, 10 μM (P-gp; read-out: Percent Recovery 2nd): 87%; recovery at 60 min, 10 μM (P-gp; [7]): 88%; Papp A→B at 60 min, 10 μM ([2]; read-out: Permeability 1st): 20.2 ×10⁻⁶ cm/s; Papp A→B at 60 min, 10 μM ([2]; read-out: Permeability 2nd): 17.8 ×10⁻⁶ cm/s; Papp A→B at 60 min, 10 μM ([2]; read-out: Permeability Mean): 19 ×10⁻⁶ cm/s; recovery at 60 min, 10 μM ([2]; read-out: Percent Recovery 1st): 86%; recovery at 60 min, 10 μM ([2]; read-out: Percent Recovery 2nd): 91%; recovery at 60 min, 10 μM [2, 7]: 89% |
| N[C@@H](Cc1ccc(O)c(O)c1)C(=O)O [LD (control), L-3,4-dihydroxyphenylalanine, reference compound] | 116 | 131 | > 60 | < 116 | 100 | 100 | 100 | 102.5 | 97.8 | 100 | 93.2 | 89.3 | 91 | 80.1 | 78 | 79 | 72.3 | 75.2 | 74 | 63 | recovery at 60 min, 10 μM (P-gp; read-out: Percent Recovery 2nd): 41%; recovery at 60 min, 10 μM (P-gp; [7]): 52%; Papp A→B at 60 min, 10 μM ([2]; read-out: Permeability 1st): 1.15 ×10⁻⁶ cm/s; Papp A→B at 60 min, 10 μM ([2]; read-out: Permeability 2nd): 1.25 ×10⁻⁶ cm/s; Papp A→B at 60 min, 10 μM ([2]; read-out: Permeability Mean): 1.2 ×10⁻⁶ cm/s; recovery at 60 min, 10 μM ([2]; read-out: Percent Recovery 1st): 37%; recovery at 60 min, 10 μM ([2]; read-out: Percent Recovery 2nd): 22%; recovery at 60 min, 10 μM [2, 7]: 29% |
| NC(=O)C[C@H](NC(=O)[C@@H](N)Cc1ccc(O)c(O)c1)C(=O)O [LD-Asn TFA salt, Levodopa Asparagine TFA Salt] (H-[Dopa]-Asn-OH) | 74.4 | 77.3 | > 60 | < 116 | 100 | 100 | 100 | 92.8 | 96.4 | 95 | 79.9 | 88.6 | 84 | 66.1 | 59.7 | 63 | 58.9 | 64.9 | 62 | 65 | recovery at 60 min, 10 μM (P-gp; read-out: Percent Recovery 2nd): 62%; recovery at 60 min, 10 μM (P-gp; [7]): 63%; Papp A→B at 60 min, 10 μM ([2]; read-out: Permeability 1st): 0.6 ×10⁻⁶ cm/s; Papp A→B at 60 min, 10 μM ([2]; read-out: Permeability 2nd): 0.47 ×10⁻⁶ cm/s; Papp A→B at 60 min, 10 μM ([2]; read-out: Permeability Mean): 0.5 ×10⁻⁶ cm/s; recovery at 60 min, 10 μM ([2]; read-out: Percent Recovery 1st): 62%; recovery at 60 min, 10 μM ([2]; read-out: Percent Recovery 2nd): 78%; recovery at 60 min, 10 μM [2, 7]: 70% |
| N[C@@H](Cc1ccc(O)c(O)c1)C(=O)N[C@@H](CC(=O)O)C(=O)O [LD-Asp TFA salt, Levodopa Aspartic Acid] (H-[Dopa]-Asp-OH) |  |  |  |  |  |  |  |  |  |  |  |  |  |  |  |  |  |  |  |  | Physical stability (visual), Day 1 [3, 8]: Stable; Physical stability (visual), Day 2 [3, 8]: Stable; Physical stability (visual), Day 5 [3, 8]: Stable; Physical stability (visual), Day 6 [3, 8]: Stable; Physical stability (visual), Day 40 [3, 8]: Stable; Physical stability (visual), Day 1 [3, 9]: Stable; Physical stability (visual), Day 2 [3, 9]: Stable; Physical stability (visual), Day 5 [3, 9]: Stable; Physical stability (visual), Day 6 [3, 9]: Stable; Physical stability (visual), Day 40 [3, 9]: Stable; Physical stability (visual), Day 1 [3, 10]: Stable; Physical stability (visual), Day 2 [3, 10]: Stable; Physical stability (visual), Day 5 [3, 10]: Stable; Physical stability (visual), Day 6 [3, 10]: Stable; Physical stability (visual), Day 40 [3, 10]: Stable |
